# Assay results published in patent US6737383B1, “Herbicidal oxadiazolidines” (priority 1999, dated 2004).
# What was measured:
# barnyardgrass = assay: Test C postemergence barnyardgrass; type: in vivo, Echinochloa crus-galli; settings: 0 to 100 scale, 0 no effect, 100 complete control
# Summary of the method: (§1)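 Foliar postemergence treatment of greenhouse plants grown in 60:40 sandy loam:potting mix; compounds delivered in non-phytotoxic solvent with surfactant. Evaluation is visual, 0–100, after ~14–21 d.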
# common ragweed = assay: Test C postemergence common ragweed; type: in vivo, Ambrosia elatior; settings: 0 to 100 scale, 0 no effect, 100 complete control
# Summary of the method: as §1
# cotton = assay: Test C postemergence cotton; type: in vivo, Gossypium hirsutum; settings: 0 to 100 scale, 0 no effect, 100 complete control
# Summary of the method: as §1
# field bindweed = assay: Test C postemergence field bindweed; type: in vivo, Convolvulus arvensis; settings: 0 to 100 scale, 0 no effect, 100 complete control
# Summary of the method: as §1
# johnsongrass = assay: Test C postemergence johnsongrass; type: in vivo, Sorghum halepense; settings: 0 to 100 scale, 0 no effect, 100 complete control
# Summary of the method: as §1
# redroot pigweed [1] = assay: Test C postemergence redroot pigweed; type: in vivo, Amaranthus retroflexus; settings: 0 to 100 scale, 0 no effect, 100 complete control
# Summary of the method: as §1
# deadnettle = assay: Test E deadnettle; type: in vivo, Lamium amplexicaule; settings: Postemergence; for Plant response rating, Deadnettle: 0 to 100 scale
# Summary of the method: (§2)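 For postemergence, application to 1- to 4-leaf plants growing in a 60:40 sandy loam–potting mix substrate. Formulation: non-phytotoxic solvent mixture plus surfactant. Untreated controls served as the reference for the visual rating after ~21–28 days.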
# downy brome = assay: Test E downy brome; type: in vivo, Bromus tectorum; settings: Postemergence; for Plant response rating, Downy brome: 0 to 100 scale
# Summary of the method: as §2
# Italian ryegrass = assay: Test E Italian ryegrass; type: in vivo, Lolium multiflorum; settings: Postemergence; for Plant response rating, I. Ryegrass: 0 to 100 scale
# Summary of the method: as §2
# redroot pigweed [2] = assay: Test E redroot pigweed; type: in vivo, Amaranthus retroflexus; settings: Postemergence; for Plant response rating, Redroot pigweed: 0 to 100 scale
# Summary of the method: as §2
# scentless chamomile = assay: Test E scentless chamomile; type: in vivo, Matricaria inodora; settings: Postemergence; for Plant response rating, Scentless chamo: 0 to 100 scale
# Summary of the method: as §2
# common pursiane = assay: Test D common purslane; type: in vivo, Portulaca oleracea; settings: Postemergence, 0 to 100 scale
# common groundsel = assay: Test D common groundsel; type: in vivo, Senecio vulgaris; settings: Postemergence, 0 to 100 scale
# itchgrass = assay: Test D itchgrass; type: in vivo, Rottboellia exaltata; settings: Postemergence, 0 to 100 scale
# kochia = assay: Test E kochia; type: in vivo, Kochia scoparia; settings: Preemergence
# lambsquarters = assay: Test E lambsquarters; type: in vivo, Chenopodium album; settings: Preemergence
# [3] = Rate 125 g/ha, 0 is no effect, 100 is complete control
# [4] = Rate 250 g/ha, 0 to 100 scale where 0 is no effect and 100 is complete control
# [5] = Rate 500 g/ha, 0 is no effect, 100 is complete control
# [6] = Rate 16 g/ha, 0 no injury, 100 complete control
# [7] = Rate 32 g/ha, 0 no injury, 100 complete control
# [8] = Rate 64 g/ha, 0 no injury, 100 complete control
# [9] = Rate 125 g/ha, 0 no injury, 100 complete control
# [10] = Rate 125 g/ha, 0 to 100 scale (0 no effect, 100 complete control)
# [11] = Rate 500 g/ha, 0 to 100 scale where 0 is no effect and 100 is complete control
structure (smiles),measurement,setting,value
CC(C)N(C(=O)n1oc(=O)n(C2CC2)c1=O)c1ccc(F)cc1 [Compound 242],"Plant response rating, Barnyardgrass",barnyardgrass; Rate 140 g/ha,80
same,"Plant response rating, Barnyardgrass",barnyardgrass; Rate 280 g/ha,85
same,"Plant response rating, Barnyardgrass",barnyardgrass; Rate 560 g/ha,90
same,"Plant response rating, Barnyardgrass",barnyardgrass; Rate 1120 g/ha,95
same,Plant response rating Common ragweed,common ragweed; Rate 140 g/ha,0
same,Plant response rating Common ragweed,common ragweed; Rate 280 g/ha,10
same,Plant response rating Common ragweed,common ragweed; Rate 560 g/ha,80
same,Plant response rating Common ragweed,common ragweed; Rate 1120 g/ha,80
same,Plant response rating Cotton,cotton; Rate 140 g/ha,0
same,Plant response rating Cotton,cotton; Rate 280 g/ha,20
same,Plant response rating Cotton,cotton; Rate 560 g/ha,45
same,Plant response rating Cotton,cotton; Rate 1120 g/ha,70
same,Plant response rating Field bindweed,field bindweed; Rate 140 g/ha,0
same,Plant response rating Field bindweed,field bindweed; Rate 560 g/ha,0
same,Plant response rating Field bindweed,field bindweed; Rate 1120 g/ha,0
same,"Plant response rating, Johnsongrass",johnsongrass; Rate 140 g/ha,45
same,"Plant response rating, Johnsongrass",johnsongrass; Rate 280 g/ha,45
same,"Plant response rating, Johnsongrass",johnsongrass; Rate 560 g/ha,60
same,"Plant response rating, Johnsongrass",johnsongrass; Rate 1120 g/ha,90
same,"Plant response rating, Redroot pigweed",redroot pigweed [1]; Rate 140 g/ha,0
same,"Plant response rating, Redroot pigweed",redroot pigweed [1]; Rate 280 g/ha,0
same,"Plant response rating, Redroot pigweed",redroot pigweed [1]; Rate 560 g/ha,10
same,"Plant response rating, Redroot pigweed",redroot pigweed [1]; Rate 1120 g/ha,50
same,"Plant response rating, Deadnettle",deadnettle; Rate 62 g/ha,100
same,"Plant response rating, Deadnettle",deadnettle; [3],10
same,Deadnettle plant response rating,deadnettle; [4],10
same,"Plant response rating, Deadnettle",deadnettle; [5],50
same,"Plant response rating, Downy brome",downy brome; Rate 62 g/ha,30
same,"Plant response rating, Downy brome",downy brome; [3],30
same,Downy brome plant response rating,downy brome; [4],30
same,"Plant response rating, Downy brome",downy brome; [5],40
same,"Plant response rating, I. Ryegrass",Italian ryegrass; Rate 62 g/ha,50
same,"Plant response rating, I. Ryegrass",Italian ryegrass; [3],0
same,I. Ryegrass plant response rating,Italian ryegrass; [4],70
same,"Plant response rating, I. Ryegrass",Italian ryegrass; [5],60
same,"Plant response rating, Redroot pigweed",redroot pigweed [2]; Rate 62 g/ha,0
same,"Plant response rating, Redroot pigweed",redroot pigweed [2]; [3],0
same,Redroot pigweed plant response rating,redroot pigweed [2]; [4],0
same,"Plant response rating, Redroot pigweed",redroot pigweed [2]; [5],40
same,"Plant response rating, Scentless chamo",scentless chamomile; Rate 62 g/ha,55
same,"Plant response rating, Scentless chamo",scentless chamomile; [3],40
same,Scentless chamo plant response rating,scentless chamomile; [4],0
same,"Plant response rating, Scentless chamo",scentless chamomile; [5],20
same,"Plant response rating, C. purslane",common pursiane; [6],0
same,"Plant response rating, C. purslane",common pursiane; [7],0
same,"Plant response rating, C. purslane",common pursiane; [8],0
same,"Plant response rating, C. purslane",common pursiane; [9],0
same,"Plant response rating, C. purslane",common pursiane; Rate 250 g/ha,0
same,"Plant response rating, Com. groundsel",common groundsel; [6],0
same,"Plant response rating, Com. groundsel",common groundsel; [7],100
same,"Plant response rating, Com. groundsel",common groundsel; [8],90
same,"Plant response rating, Com. groundsel",common groundsel; [9],90
same,"Plant response rating, Com. groundsel",common groundsel; Rate 250 g/ha,100
same,"Plant response rating, Itchgrass",itchgrass; [6],0
same,"Plant response rating, Itchgrass",itchgrass; [7],0
same,"Plant response rating, Itchgrass",itchgrass; [8],40
same,"Plant response rating, Itchgrass",itchgrass; [9],80
same,"Plant response rating, Itchgrass",itchgrass; Rate 250 g/ha,100
same,"Plant response rating, Kochia",kochia; [10],35
same,Kochia plant response rating (0 to 100 scale),kochia; Rate 250 g/ha,50
same,"Plant response rating, Kochia",kochia; [11],60
same,Plant response rating Lambsquarters,lambsquarters; [10],100
same,Lambsquarters plant response rating (0 to 100 scale),lambsquarters; Rate 250 g/ha,100
same,Plant response rating Lambsquarters,lambsquarters; [11],100
